pIC50: −log10 of the molar value.

In this assay the test system is PBMC (T cell proliferation). The assay is described as follows: T cell proliferation assay, PHA-stimulated human PBMC (BrdU ELISA). The class given is cell-based. The following applies: human PBMC, 2 μg/ml PHA, 48 hours, BrdU; read-out: D: IC50 (Tcell proliferation). The procedure:
Cell proliferation was analysed using the BrdU based cell proliferation ELISA from Roche (Mannheim, Germany) according to the manufacturer's instructions.
T Cell Proliferation Assay
Peripheral blood mononuclear cells (PBMC) from healthy human donors were isolated by centrifugation over Ficoll-Hypaque (Sigma-Aldrich, Germany) according to manufacturer's instructions. Purified PBMC were washed twice with PBS and resuspended in RPMI1640 culture medium supplemented with 10% dialyzed heat inactivated fetal calf serum, 1.5 mM L-glutamine, 100 U penicillin/ml, and […] (all from PAN Biotech, Aidenbach, Germany). For stimulation, PBMC were seeded at 1×10^5 cells/well, activated with 2 μg/ml phytohaemagglutinin (PHA, Sigma) and incubated with the test compound. After 48 hours proliferation was measured using the BrdU based cell proliferation ELISA from Roche (Mannheim, Germany) according to the manual.

`COC(=O)c1c(-c2c(F)cccc2Cl)noc1-c1cnn(-c2ccccc2F)c1C(F)(F)F` [Example 1, methyl 3-(2-chloro-6-fluorophenyl)-5-(1-(2-fluorophenyl)-5-(trifluoromethyl)-1H-pyrazol-4-yl)isoxazole-4-carboxylate]: the pIC50 is 7.00 to 8.00. With `COC(=O)c1c(-c2c(F)cccc2Cl)noc1-c1cnn(-c2ccc(F)cc2)c1C(F)(F)F` [Example 3, methyl 3-(2-chloro-6-fluorophenyl)-5-(1-(4-fluorophenyl)-5-(trifluoromethyl)-1H-pyrazol-4-yl)isoxazole-4-carboxylate], the pIC50 was 7.00 to 8.00. The value for `COC(=O)c1c(-c2c(F)cccc2Cl)noc1-c1cnn(-c2cccc(Cl)c2Cl)c1C(F)(F)F` [Example 4, methyl 3-(2-chloro-6-fluorophenyl)-5-(1-(2,3-dichlorophenyl)-5-(trifluoromethyl)-1H-pyrazol-4-yl)isoxazole-4-carboxylate] was 5.00 to 6.00; that for `COC(=O)c1c(-c2c(F)cccc2Cl)noc1-c1cnn(-c2cccc(F)c2)c1C(F)(F)F` [Example 5, methyl 3-(2-chloro-6-fluorophenyl)-5-(1-(3-fluorophenyl)-5-(trifluoromethyl)-1H-pyrazol-4-yl)isoxazole-4-carboxylate] was above 8.00. `CCOC(=O)c1c(-c2onc(-c3c(F)cccc3Cl)c2C(=O)OC)cnn1-c1ccc(Cl)cc1Cl` [Example 6, methyl 3-(2-chloro-6-fluorophenyl)-5-(1-(2,4-dichlorophenyl)-5-(ethoxycarbonyl)-1H-pyrazol-4-yl)isoxazole-4-carboxylate]: the pIC50 is 5.00 to 6.00. As for `COC(=O)c1c(-c2c(F)cccc2Cl)noc1-c1cnn(-c2ccc(Cl)cc2Cl)c1C(F)(F)F` [Example 7, methyl 3-(2-chloro-6-fluorophenyl)-5-(1-(2,4-dichlorophenyl)-5-(trifluoromethyl)-1H-pyrazol-4-yl)isoxazole-4-carboxylate], the pIC50 is 5.00 to 6.00. With `CCOC(=O)c1c(-c2onc(-c3c(F)cccc3Cl)c2C(=O)OC)cnn1-c1cccc(F)c1` [Example 8, methyl 3-(2-chloro-6-fluorophenyl)-5-(5-(ethoxycarbonyl)-1-(3-fluorophenyl)-1H-pyrazol-4-yl)isoxazole-4-carboxylate], the pIC50 was 6.00 to 7.00. The value for `CCOC(=O)c1c(-c2onc(-c3c(F)cccc3Cl)c2C(=O)OC)cnn1-c1cccc(Cl)c1Cl` [Example 9, methyl 3-(2-chloro-6-fluorophenyl)-5-(1-(2,3-dichlorophenyl)-5-(ethoxycarbonyl)-1H-pyrazol-4-yl)isoxazole-4-carboxylate] was 5.00 to 6.00. Regarding `CCOC(=O)c1c(-c2onc(-c3c(F)cccc3Cl)c2C(=O)OC)cnn1-c1cccc(Cl)c1` [Example 10, methyl 3-(2-chloro-6-fluorophenyl)-5-(1-(3-chlorophenyl)-5-(ethoxycarbonyl)-1H-pyrazol-4-yl)isoxazole-4-carboxylate], the pIC50 was 7.00 to 8.00. Regarding `COC(=O)c1c(-c2c(F)cccc2Cl)noc1-c1cnn(-c2cccc(Cl)c2)c1C(F)(F)F` [Example 11, methyl 3-(2-chloro-6-fluorophenyl)-5-(1-(3-chlorophenyl)-5-(trifluoromethyl)-1H-pyrazol-4-yl)isoxazole-4-carboxylate], the pIC50 was above 8.00. For `COC(=O)c1c(-c2c(F)cccc2Cl)noc1-c1cnn(-c2cccc(C#N)c2)c1C(F)(F)F` [Example 12, methyl 3-(2-chloro-6-fluorophenyl)-5-(1-(3-cyanophenyl)-5-(trifluoromethyl)-1H-pyrazol-4-yl)isoxazole-4-carboxylate], the pIC50 was 7.00 to 8.00. As to `CCOC(=O)c1c(-c2onc(-c3c(F)cccc3Cl)c2C(=O)OC)cnn1-c1cccc(C#N)c1` [Example 13, methyl 3-(2-chloro-6-fluorophenyl)-5-(1-(3-cyanophenyl)-5-(ethoxycarbonyl)-1H-pyrazol-4-yl)isoxazole-4-carboxylate], the pIC50 is 6.00 to 7.00. Regarding `O=C(c1c(-c2c(F)cccc2Cl)noc1-c1cnn(-c2ccccc2F)c1C(F)(F)F)N1CCOCC1` [Example 16, (3-(2-chloro-6-fluorophenyl)-5-(1-(2-fluorophenyl)-5-(trifluoromethyl)-1H-pyrazol-4-yl)isoxazol-4-yl)(morpholino)methanone], the pIC50 was 5.00 to 6.00. Consider `CN1CCN(C(=O)c2c(-c3c(F)cccc3Cl)noc2-c2cnn(-c3ccccc3F)c2C(F)(F)F)CC1` [Example 17, (3-(2-chloro-6-fluorophenyl)-5-(1-(2-fluorophenyl)-5-(trifluoromethyl)-1H-pyrazol-4-yl)isoxazol-4-yl)(4-methylpiperazin-1-yl)methanone], for which the pIC50 was 5.00 to 6.00. Regarding `O=C(NC1CCCCC1)c1c(-c2c(F)cccc2Cl)noc1-c1cnn(-c2ccccc2F)c1C(F)(F)F` [Example 18, 3-(2-chloro-6-fluorophenyl)-N-cyclohexyl-5-(1-(2-fluorophenyl)-5-(trifluoromethyl)-1H-pyrazol-4-yl)isoxazole-4-carboxamide], the pIC50 is 5.00 to 6.00.

On to `CNC(=O)c1c(-c2c(F)cccc2Cl)noc1-c1cnn(-c2ccccc2F)c1C(F)(F)F` [Example 19, 3-(2-chloro-6-fluorophenyl)-5-(1-(2-fluorophenyl)-5-(trifluoromethyl)-1H-pyrazol-4-yl)-N-methylisoxazole-4-carboxamide], for which the pIC50 was 5.00 to 6.00.

With `O=C(c1c(-c2c(F)cccc2Cl)noc1-c1cnn(-c2ccccc2F)c1C(F)(F)F)N1CCCCC1` [Example 21, (3-(2-chloro-6-fluorophenyl)-5-(1-(2-fluorophenyl)-5-(trifluoromethyl)-1H-pyrazol-4-yl)isoxazol-4-yl)(piperidin-1-yl)methanone], the pIC50 is 7.00 to 8.00. Take `O=C(NCc1ccccc1C(F)(F)F)c1c(-c2c(F)cccc2Cl)noc1-c1cnn(-c2ccccc2F)c1C(F)(F)F` [Example 23, 3-(2-chloro-6-fluorophenyl)-5-(1-(2-fluorophenyl)-5-(trifluoromethyl)-1H-pyrazol-4-yl)-N-(2-(trifluoromethyl)benzyl)isoxazole-4-carboxamide]: the pIC50 is 5.00 to 6.00. As for `O=C(c1c(-c2c(F)cccc2Cl)noc1-c1cnn(-c2ccccc2F)c1C(F)(F)F)N1CCN(Cc2cccc(Cl)c2)CC1` [Example 24, (3-(2-chloro-6-fluorophenyl)-5-(1-(2-fluorophenyl)-5-(trifluoromethyl)-1H-pyrazol-4-yl)isoxazol-4-yl)(4-(3-chlorobenzyl)piperazin-1-yl)methanone], the pIC50 was 6.00 to 7.00.

On to `CCOC(=O)c1c(-c2onc(-c3c(F)cccc3Cl)c2C(=O)OC)cnn1-c1ccc(F)cc1` [Example 26, methyl 3-(2-chloro-6-fluorophenyl)-5-(5-(ethoxycarbonyl)-1-(4-fluorophenyl)-1H-pyrazol-4-yl)isoxazole-4-carboxylate], for which the pIC50 was 5.00 to 6.00. `COC(=O)c1c(-c2c(F)cccc2Cl)noc1-c1cnn(CC(C)C)c1C(F)(F)F` [Example 28]: the pIC50 was 6.00 to 7.00. As to `CCOC(=O)c1c(-c2onc(-c3c(F)cccc3Cl)c2C(=O)OC)cnn1CC(C)C` [Example 29], the pIC50 was 5.00 to 6.00. As to `CNC(=O)c1c(-c2c(F)cccc2Cl)noc1-c1cnn(-c2cccc(Cl)c2)c1C(F)(F)F` [Example 32, 3-(2-chloro-6-fluorophenyl)-5-(1-(3-chlorophenyl)-5-(trifluoromethyl)-1H-pyrazol-4-yl)-N-methylisoxazole-4-carboxamide], the pIC50 is 7.00 to 8.00. For `COC(=O)c1c(-c2c(F)cccc2Cl)noc1-c1cnn(-c2ccc(OC(F)(F)F)cc2)c1C(F)(F)F` [Example 33, methyl 3-(2-chloro-6-fluorophenyl)-5-(1-(4-(trifluoromethoxy)phenyl)-5-(trifluoromethyl)-1H-pyrazol-4-yl)isoxazole-4-carboxylate], the pIC50 is 5.00 to 6.00. As for `CCOC(=O)c1c(-c2onc(-c3c(F)cccc3Cl)c2C(=O)OC)cnn1-c1ccccc1` [Example 34, methyl 3-(2-chloro-6-fluorophenyl)-5-(5-(ethoxycarbonyl)-1-phenyl-1Hpyrazol-4-yl)isoxazole-4-carboxylate], the pIC50 is 5.00 to 6.00. On to `CCOC(=O)c1c(-c2onc(-c3c(F)cccc3Cl)c2C(=O)OC)cnn1-c1ccc(F)cc1F` [Example 35, methyl 3-(2-chloro-6-fluorophenyl)-5-(1-(2,4-difluorophenyl)-5-(ethoxycarbonyl)-1H-pyrazol-4-yl)isoxazole-4-carboxylate], for which the pIC50 is 6.00 to 7.00. Consider `CCOC(=O)c1c(-c2onc(-c3c(F)cccc3Cl)c2C(=O)OC)cnn1-c1cc(F)cc(F)c1` [Example 39, methyl 3-(2-chloro-6-fluorophenyl)-5-(1-(3,5-difluorophenyl)-5-(ethoxycarbonyl)-1-H-pyrazol-4-yl)isoxazole-4-carboxylate], for which the pIC50 was 5.00 to 6.00. The value for `CCOC(=O)c1c(-c2onc(-c3c(F)cccc3Cl)c2C(=O)OC)cnn1-c1ccccc1F` [Example 41, methyl 3-(2-chloro-6-phenyl)-5-(5-(ethoxycarbonyl)-1-(2-fluorophenyl)-1H-pyrazol-4-yl)isoxazole-4-carboxylate] was 6.00 to 7.00.

As for `CCOC(=O)c1c(-c2c(F)cccc2Cl)noc1-c1cnn(-c2ccccc2F)c1C(F)(F)F` [Example 42, Ethyl 3-(2-chloro-6-fluorophenyl)-5-[1-(2-fluorophenyl)-5-(trifluoromethyl)-1H-pyrazol-4-yl]isoxazole-4-carboxylate], the pIC50 is 7.00 to 8.00.

With `CC(C)OC(=O)c1c(-c2c(F)cccc2Cl)noc1-c1cnn(-c2ccccc2F)c1C(F)(F)F` [Example 43, i-Propyl 3-(2-chloro-6-fluorophenyl)-5-[1-(2-fluorophenyl)-5-(trifluoromethyl)-1H-pyrazol-4-yl]isoxazole-4-carboxylate], the pIC50 is 7.00 to 8.00.
